# According to patent US20250170248A1, “SMARCA DEGRADERS AND USES THEREOF” (Kymera Therapeutics, Inc., priority 2021, published 2025):
# Key:
# Format in all cases: cell-based
# SMARCA2 [1] = target: T1, SMARCA2 (Homo sapiens, UniProt P51531); test: MSD SMARCA2 degradation in A549 cell line; conditions: for Dmax: A549, A549 cells; for Dmax / DC50: 24 h; for DC50 / SMARCA2 MSD A549 degradation 24 h: Average Dmax %: A549 cells; for DC50: read-out: SMARCA2 MSD A549 degradation 24 h: Average external-Abs DC50
# Summary of the method: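 A549 cells treated 24 h with compound, 3-fold series from 1000 nM. Lysates captured on MSD plates and SMARCA2 quantified with anti-SMARCA2 and SULFO-TAG secondary antibodies (electrochemiluminescence). DC50 and Dmax (% degradation at 24 h) reported as letter bins.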
# SMARCA4 = target: T2, SMARCA4 (Homo sapiens, UniProt P51532); test: SMARCA4 Western blot degradation in MV4-11 cells; conditions: for Dmax: MV4-11, MV4-11 cells, read-out: SMARCA4 MSD MV411 degradation 24 h: average Dmax %; for Dmax / DC50: 24 h; for DC50: read-out: SMARCA4 MSD MV411 degradation 24 h: Mean external-Abs DC50
# T2 construct: SMARCA2/SMARCA4 protein degradation selectivity in MV4-11 cells; endogenous in cells; host or cells: MV4-11
# Summary of the method: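 MV4-11 cells (4×10^6/well) treated with compound for 24 h, lysed in RIPA with protease/phosphatase inhibitors, and SMARCA2, SMARCA4 and beta-actin detected by Western blot with LI-COR readout. Values reported as letter-coded DC50, 24 h Dmax % and SMARCA2/4 selectivity fold.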
# SMARCA2 [2] = target: T1, SMARCA2; test: SMARCA2 Western blot degradation in MV4-11 cells; design: SMARCA2/SMARCA4 protein degradation selectivity in MV4-11 cells; endogenous in cells; host or cells: MV4-11; conditions: for Dmax: MV4-11, MV4-11 cells, read-out: SMARCA2 MSD MV411 degradation 24 h: average Dmax %; for Dmax / DC50 / SMARCA2 MSD MV411 degradation 24 h: average Dmax %: 24 h; for DC50 / Selectivity in MV411 / SMARCA2 MSD MV411 degradation 24 h: average Dmax %: MV4-11 cells; for DC50: read-out: SMARCA2 MSD MV411 degradation 24 h: Mean external-Abs DC50; for Selectivity in MV411: SMARCA2/4 selectivity
# T1 sequence (P51531 whole entry): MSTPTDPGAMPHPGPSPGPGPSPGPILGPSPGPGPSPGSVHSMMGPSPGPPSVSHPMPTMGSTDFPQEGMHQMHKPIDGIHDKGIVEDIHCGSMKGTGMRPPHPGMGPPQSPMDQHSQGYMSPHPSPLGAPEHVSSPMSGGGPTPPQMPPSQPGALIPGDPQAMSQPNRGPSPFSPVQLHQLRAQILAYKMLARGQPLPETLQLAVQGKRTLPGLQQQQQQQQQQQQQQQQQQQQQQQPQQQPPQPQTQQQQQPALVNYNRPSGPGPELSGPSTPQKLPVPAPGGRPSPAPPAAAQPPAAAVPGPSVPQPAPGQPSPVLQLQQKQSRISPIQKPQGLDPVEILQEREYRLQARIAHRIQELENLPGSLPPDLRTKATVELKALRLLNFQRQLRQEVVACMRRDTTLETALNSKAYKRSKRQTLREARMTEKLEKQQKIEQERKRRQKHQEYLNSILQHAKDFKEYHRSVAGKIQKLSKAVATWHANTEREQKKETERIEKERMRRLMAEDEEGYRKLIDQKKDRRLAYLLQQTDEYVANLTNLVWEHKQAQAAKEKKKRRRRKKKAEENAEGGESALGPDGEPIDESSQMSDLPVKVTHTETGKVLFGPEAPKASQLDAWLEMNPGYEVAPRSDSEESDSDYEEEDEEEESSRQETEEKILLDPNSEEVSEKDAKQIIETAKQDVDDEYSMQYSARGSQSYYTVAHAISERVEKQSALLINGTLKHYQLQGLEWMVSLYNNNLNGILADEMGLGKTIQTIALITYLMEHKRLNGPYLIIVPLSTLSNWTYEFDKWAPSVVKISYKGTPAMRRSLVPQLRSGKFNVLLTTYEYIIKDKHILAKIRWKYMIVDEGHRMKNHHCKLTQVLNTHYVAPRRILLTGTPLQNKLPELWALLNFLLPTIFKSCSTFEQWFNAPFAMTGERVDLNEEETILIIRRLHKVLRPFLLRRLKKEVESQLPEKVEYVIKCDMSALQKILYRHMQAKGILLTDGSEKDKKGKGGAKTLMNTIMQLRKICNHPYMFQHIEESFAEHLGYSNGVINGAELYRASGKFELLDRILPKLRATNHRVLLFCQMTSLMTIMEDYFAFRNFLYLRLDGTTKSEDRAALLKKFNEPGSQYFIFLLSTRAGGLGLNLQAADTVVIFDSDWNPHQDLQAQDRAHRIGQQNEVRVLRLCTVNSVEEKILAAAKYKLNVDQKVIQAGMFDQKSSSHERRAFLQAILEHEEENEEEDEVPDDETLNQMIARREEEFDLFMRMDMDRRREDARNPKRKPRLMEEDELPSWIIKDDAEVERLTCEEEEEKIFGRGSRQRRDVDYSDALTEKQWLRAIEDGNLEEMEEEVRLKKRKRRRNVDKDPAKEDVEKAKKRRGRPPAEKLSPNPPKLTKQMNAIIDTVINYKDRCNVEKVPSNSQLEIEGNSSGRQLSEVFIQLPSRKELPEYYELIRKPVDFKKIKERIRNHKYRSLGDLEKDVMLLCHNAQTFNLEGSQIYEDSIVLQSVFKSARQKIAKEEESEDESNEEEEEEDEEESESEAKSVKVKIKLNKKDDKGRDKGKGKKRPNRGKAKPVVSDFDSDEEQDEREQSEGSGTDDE
# T2 sequence (P51532 whole entry): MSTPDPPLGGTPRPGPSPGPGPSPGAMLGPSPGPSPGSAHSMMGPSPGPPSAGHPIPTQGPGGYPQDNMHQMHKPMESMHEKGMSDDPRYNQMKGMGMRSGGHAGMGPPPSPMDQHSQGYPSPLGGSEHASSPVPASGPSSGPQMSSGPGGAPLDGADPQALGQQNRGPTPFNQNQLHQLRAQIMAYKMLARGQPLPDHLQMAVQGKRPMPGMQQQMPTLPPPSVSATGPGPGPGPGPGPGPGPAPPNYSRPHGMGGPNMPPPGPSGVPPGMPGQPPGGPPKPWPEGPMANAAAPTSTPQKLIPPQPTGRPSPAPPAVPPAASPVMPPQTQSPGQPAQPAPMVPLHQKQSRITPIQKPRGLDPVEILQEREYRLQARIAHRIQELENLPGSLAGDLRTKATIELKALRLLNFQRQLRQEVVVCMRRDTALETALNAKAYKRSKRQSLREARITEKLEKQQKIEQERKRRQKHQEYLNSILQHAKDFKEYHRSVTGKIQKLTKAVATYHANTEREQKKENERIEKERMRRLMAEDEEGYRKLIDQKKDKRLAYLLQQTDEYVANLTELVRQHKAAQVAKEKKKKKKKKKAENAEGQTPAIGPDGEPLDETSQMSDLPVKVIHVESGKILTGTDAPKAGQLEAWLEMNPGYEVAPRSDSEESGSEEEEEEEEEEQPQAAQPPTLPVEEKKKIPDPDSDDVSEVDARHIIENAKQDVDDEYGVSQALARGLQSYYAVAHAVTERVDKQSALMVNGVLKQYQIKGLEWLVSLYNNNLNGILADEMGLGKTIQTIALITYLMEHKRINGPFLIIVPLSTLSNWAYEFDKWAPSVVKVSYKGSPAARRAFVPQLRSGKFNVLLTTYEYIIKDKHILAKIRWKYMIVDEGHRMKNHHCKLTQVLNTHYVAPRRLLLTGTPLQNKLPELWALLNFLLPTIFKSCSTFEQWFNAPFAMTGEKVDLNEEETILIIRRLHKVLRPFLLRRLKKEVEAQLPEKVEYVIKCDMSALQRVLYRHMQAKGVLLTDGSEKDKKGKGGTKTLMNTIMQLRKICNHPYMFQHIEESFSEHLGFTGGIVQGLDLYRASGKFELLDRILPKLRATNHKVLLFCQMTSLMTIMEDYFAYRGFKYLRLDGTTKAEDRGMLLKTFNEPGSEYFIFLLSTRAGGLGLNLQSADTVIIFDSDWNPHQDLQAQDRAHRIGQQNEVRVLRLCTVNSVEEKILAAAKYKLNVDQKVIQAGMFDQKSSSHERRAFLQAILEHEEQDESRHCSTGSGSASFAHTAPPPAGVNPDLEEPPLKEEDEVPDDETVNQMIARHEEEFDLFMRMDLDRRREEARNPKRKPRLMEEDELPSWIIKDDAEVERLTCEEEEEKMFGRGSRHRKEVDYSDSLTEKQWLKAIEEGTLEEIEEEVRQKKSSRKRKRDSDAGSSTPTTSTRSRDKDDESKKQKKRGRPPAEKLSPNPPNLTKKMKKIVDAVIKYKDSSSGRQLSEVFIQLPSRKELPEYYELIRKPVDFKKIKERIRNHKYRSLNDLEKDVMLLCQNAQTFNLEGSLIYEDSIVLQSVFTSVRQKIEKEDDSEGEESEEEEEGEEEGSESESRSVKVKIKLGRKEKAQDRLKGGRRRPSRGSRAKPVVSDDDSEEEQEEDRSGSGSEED
Dmax (SMARCA2 [1]) [%],DC50 (SMARCA2 [1]) [nM],Dmax (SMARCA4) [%],DC50 (SMARCA4; MV4-11 cells) [nM],Dmax (SMARCA2 [2]) [%],DC50 (SMARCA2 [2]) [nM],Selectivity in MV411 (SMARCA2 [2]),SMARCA2 MSD A549 degradation 24 h: Average Dmax % (SMARCA2 [1]),SMARCA2 MSD MV411 degradation 24 h: average Dmax % (SMARCA2 [2]),SMARCA4 MSD MV411 degradation 24 h: average Dmax % (SMARCA4; MV4-11 cells),Structure (SMILES)
> 90,10 to 50,> 90,10 to 100,> 90,1 to 10,D (D (<10 fold)),–,–,–,Cc1ncsc1-c1ccc(CNC(=O)[C@@H]2C[C@@H](O)CN2C(=O)C(c2cc(N3CC4(CC(N5CCC(c6cnc(N7CCc8[nH]c9nnc(-c%10ccccc%10O)cc9c8[C@@H]7C)nc6)CC5)C4)C3)no2)C(C)C)cc1 (stereo partly shown) [I-11]
–,–,< 50,10 to 100,–,10 to 100,C (C (10-100 fold)),D (D (<50% degradation)),D (D (<50% degradation)),–,Cc1ncsc1-c1ccc(CNC(=O)[C@@H]2C[C@@H](O)CN2C(=O)[C@@H](NC(=O)[C@H]2CC3(C2)C[C@H](N2CCN(c4cnc(N5CCN6c7cc(-c8ccccc8O)nnc7NC[C@H]6C5)nc4)CC2)C3)C(C)(C)C)cc1 (stereo partly shown) [I-18]
–,10 to 50,–,10 to 100,–,1 to 10,C (C (10-100 fold)),A (A (>90% degradation)),A (A (>90% degradation)),B (B (>70-90% degradation)),Cc1ncsc1-c1ccc(CNC(=O)[C@@H]2C[C@@H](O)CN2C(=O)[C@@H](NC(=O)[C@H]2CC3(C2)C[C@H](N2CCN(c4cnc(N5CCN6c7cc(-c8ccccc8O)nnc7NC[C@H]6C5)nc4)CC2)C3)C(C)(C)C)cc1 (stereo partly shown) [I-19]
> 90,10 to 50,50 to 70,> 100,70 to 90,1 to 10,B (B (>100-500 fold)),–,–,–,"Cc1ncsc1-c1ccc(CNC(=O)[C@@H]2C[C@@H](O)CN2C(=O)[C@@H](NC(=O)N2CC3(CC(N4CCC(c5cnc(N6CCc7[nH]c8nnc(-c9ccccc9O)cc8c7[C@H]6C)nc5)CC4)C3)C2)C(C)(C)C)cc1 [I-58, N—((S)-1-((2S,4R)-4-hydroxy-2-((4-(4-methylthiazol-5-yl)benzyl)carbamoyl)pyrrolidin-1-yl)-3,3-dimethyl-1l-oxobutan-2-yl)-6-(4-(2-((R)-3-(2-hydroxyphenyl)-5-methyl-7,8-dihydro-5H-pyrido [3′, 4′: 4,5]pyrrolo [2,3-c]pyridazin-6(9H)-yl)pyrimidin-5-yl)piperidin-1-yl)-2-azaspiro[3.3]heptane-2-carboxamide]"
70 to 90,> 100,< 50,> 100,< 50,> 100,C (C (10-100 fold)),–,–,–,Cc1ncsc1-c1ccc(CNC(=O)[C@@H]2C[C@@H](O)CN2C(=O)[C@@H](NC(=O)N2CC3(CCC(N4CCC(c5cnc(N6CCc7[nH]c8nnc(-c9ccccc9O)cc8c7C6C)nc5)CC4)CC3)C2)C(C)(C)C)cc1 (stereo partly shown) [I-62]
> 90,10 to 50,50 to 70,10 to 100,> 90,1 to 10,C (C (10-100 fold)),–,–,–,Cc1ncsc1-c1ccc(CNC(=O)[C@@H]2C[C@@H](O)CN2C(=O)[C@@H](NC(=O)N2CC3(CC(N4CCC(c5cnc(N6CCN7c8cc(-c9ccccc9O)nnc8NC[C@H]7C6)nc5)CC4)C3)C2)C(C)(C)C)cc1 [I-64]
> 90,> 100,< 50,> 100,70 to 90,1 to 10,A (A (>500 fold)),–,–,–,Cc1ncsc1-c1ccc(CNC(=O)[C@@H]2C[C@@H](O)CN2C(=O)[C@@H](NC(=O)C2CC3(C2)CC(N2CCC(N4CCC(N5CCN6c7cc(-c8ccccc8O)nnc7NC[C@H]6C5)CC4)CC2)C3)C(C)(C)C)cc1 (stereo partly shown) [I-75]

# The next lines start with the compound.
Structure (SMILES),Dmax (SMARCA2 [1]) [%],DC50 (SMARCA2 [1]) [nM],Dmax (SMARCA4) [%],DC50 (SMARCA4; MV4-11 cells) [nM],Dmax (SMARCA2 [2]) [%],DC50 (SMARCA2 [2]) [nM],Selectivity in MV411 (SMARCA2 [2]),SMARCA2 MSD A549 degradation 24 h: Average Dmax % (SMARCA2 [1]),SMARCA2 MSD MV411 degradation 24 h: average Dmax % (SMARCA2 [2]),SMARCA4 MSD MV411 degradation 24 h: average Dmax % (SMARCA4; MV4-11 cells)
Cc1ncsc1-c1ccc(CNC(=O)[C@@H]2C[C@@H](O)CN2C(=O)C(c2cc(N3CCC(CCN4CCC(c5cnc(N6CCc7[nH]c8nnc(-c9ccccc9O)cc8c7[C@H]6C)nc5)CC4)CC3)no2)C(C)C)cc1 (stereo partly shown) [I-7],> 90,10 to 50,> 90,10 to 100,> 90,1 to 10,C (C (10-100 fold)),–,–,–
Cc1ncsc1-c1ccc(CNC(=O)[C@@H]2C[C@@H](O)CN2C(=O)C(c2cc(N3CCC4(CC3)CC(N3CCC(c5cnc(N6CCc7[nH]c8nnc(-c9ccccc9O)cc8c7[C@H]6C)nc5)CC3)C4)no2)C(C)C)cc1 (stereo partly shown) [I-13],> 90,10 to 50,> 90,10 to 100,> 90,1 to 10,C (C (10-100 fold)),–,–,–
Cc1ncsc1-c1ccc(CNC(=O)[C@@H]2C[C@@H](O)CN2C(=O)C(c2cc(OCCCCN3CCC(c4cnc(N5CCc6[nH]c7nnc(-c8ccccc8O)cc7c6[C@H]5C)nc4)CC3)no2)C(C)C)cc1 (stereo partly shown) [I-35],70 to 90,10 to 50,70 to 90,1 to 10,> 90,1 to 10,D (D (<10 fold)),–,–,–
Cc1ncsc1-c1ccc(CNC(=O)[C@@H]2C[C@@H](O)CN2C(=O)C(c2cc(OCCN3CCC(N4CCC(c5cnc(N6CCc7[nH]c8nnc(-c9ccccc9O)cc8c7[C@H]6C)nc5)CC4)CC3)no2)C(C)C)cc1 (stereo partly shown) [I-36],> 90,10 to 50,> 90,1 to 10,> 90,1 to 10,D (D (<10 fold)),–,–,–
"Cc1ncsc1-c1ccc(CNC(=O)[C@@H]2C[C@@H](O)CN2C(=O)C(c2cc(OCCCCN3CCC(c4cnc(N5CCN6c7cc(-c8ccccc8O)nnc7NC[C@H]6C5)nc4)CC3)no2)C(C)C)cc1 (stereo partly drawn) [I-50, (2S,4R)-4-hydroxy-1-(2-(3-(4-(4-(2-((S)-2-(2-hydroxyphenyl)-6a,7,9,10-tetrahydro-5H-pyrazino[1′,2′:4,5]pyrazino[2,3-c]pyridazin-8(6H)-yl)pyrimidin-5-yl)piperidin-1-yl)butoxy)isoxazol-5-yl)-3-methylbutanoyl)-N-(4-(4-methylthiazol-5-yl)benzyl)pyrrolidine-2-carboxamide]",> 90,< 10,> 90,1 to 10,> 90,< 1,D (D (<10 fold)),–,–,–
"Cc1ncsc1-c1ccc(CNC(=O)[C@@H]2C[C@@H](O)CN2C(=O)C(c2cc(OCCCCN3CCC(c4cnc(N5CCN6c7cc(-c8ccccc8O)nnc7NC[C@@H]6C5)nc4)CC3)no2)C(C)C)cc1 (stereo partly drawn) [I-51, (2S,4R)-4-hydroxy-1-(2-(3-(4-(4-(2-((R)-2-(2-hydroxyphenyl)-6a,7,9,10-tetrahydro-5H-pyrazino[1′,2′:4,5]pyrazino[2,3-c]pyridazin-8(6H)-yl)pyrimidin-5-yl)piperidin-1-yl)butoxy)isoxazol-5-yl)-3-methylbutanoyl)-N-(4-(4-methylthiazol-5-yl)benzyl)pyrrolidine-2-carboxamide]",70 to 90,10 to 50,> 90,1 to 10,> 90,< 1,D (D (<10 fold)),–,–,–
COc1cc(C(C(=O)N2C[C@H](O)C[C@H]2C(=O)NCC#Cc2ccccc2OCCCCN2CCC(c3cnc(N4CCN5c6cc(-c7ccccc7O)nnc6NC[C@H]5C4)nc3)CC2)C(C)C)on1 (stereo partly shown) [I-74],> 90,10 to 50,> 90,1 to 10,> 90,< 1,C (C (10-100 fold)),–,–,–
